Measured values taken from US9908899B2 (BIOMARIN PHARMACEUTICAL INC., priority 2011, dated 2018).

Tests used:
[1] = molecular target: HDAC2 (Homo sapiens (Human), UniProt Q92769); assay: HDAC activity inhibition assay, HDAC2; format: biochemical
Method: (§1) The HDAC activity inhibition assay was performed as follows to determine the ability of a test compound to inhibit HDAC enzymatic activity. […] Following pre-incubation, Fluor-de-Lys™ substrate (Enzo Life Sciences, Plymouth Meeting, Pa., BML-KI104-0050) was added to a final concentration of 10 μM and plates were further incubated for 30 minutes at room temperature. […] IC50 values were calculated by using a sigmoidal dose-response (variable slope) equation in GraphPad Prism® 5 for Windows (GraphPad Software, La Jolla, Calif.).

[2] = Acid stability determination; format: physicochemical; conditions: 100 μM in 0.01 M HCl, 50° C.
Method: A 100 μM solution of test compound was prepared by dilution of a 10 mM DMSO stock solution in a 0.01 M solution of HCl in deionized water. Immediately after mixing, an aliquot (100 μL) was sampled and analyzed by HPLC/UV. The area under the compound peak was determined and used as the time zero reference point. The remainder of the acid sample was incubated at 50° C. and samples were taken after 2, 4, and 24 hours of incubation. On a few occasions, samples were taken at 30 rather than 24 hours. These were analyzed by the same HPLC/UV method and the area of the peak corresponding to the test compound was measured. Percent remaining at a given time point was then calculated as the ratio of the area under the peak after incubation to that at time zero times 100. In those cases where a 30 hour time point was recorded, the percent remaining at 24 hours was obtained by interpolation of the percent remaining versus time curve assuming a unimolecular process, i.e. a monoexponential decay. Percent remaining after 24 hours incubation are presented in Tables 2 and 4 below, where A corresponds to more than 60%, B is between 40 and 60%, C covers 20 to 40% and D means less than 20%.

[3] = molecular target: HDAC1 (Homo sapiens (Human), UniProt Q13547); assay: HDAC activity inhibition assay, HDAC1; format: biochemical
Sequence of HDAC1 (Q13547 whole entry): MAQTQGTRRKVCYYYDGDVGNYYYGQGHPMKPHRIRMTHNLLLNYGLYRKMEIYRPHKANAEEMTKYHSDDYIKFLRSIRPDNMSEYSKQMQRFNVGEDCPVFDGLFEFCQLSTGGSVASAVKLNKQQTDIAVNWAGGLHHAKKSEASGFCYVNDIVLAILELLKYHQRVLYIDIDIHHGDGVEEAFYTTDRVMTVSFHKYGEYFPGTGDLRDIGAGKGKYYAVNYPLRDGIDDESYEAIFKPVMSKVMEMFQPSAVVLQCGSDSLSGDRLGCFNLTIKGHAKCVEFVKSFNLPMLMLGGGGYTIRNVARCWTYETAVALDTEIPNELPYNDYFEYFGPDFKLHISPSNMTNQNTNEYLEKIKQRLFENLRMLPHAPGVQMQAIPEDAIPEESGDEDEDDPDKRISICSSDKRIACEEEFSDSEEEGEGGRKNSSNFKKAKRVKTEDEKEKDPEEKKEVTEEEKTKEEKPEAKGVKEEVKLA
Method: as §1

[4] = tested on: Frataxin (FXN) mRNA; assay: Effect of HDAC inhibitors on frataxin (FXN) mRNA expression in Friedreich's ataxia patient primary lymphocytes; format: cell-based, human; conditions: Homo sapiens, Lymphocyte; Friedreich's ataxia patient primary lymphocytes, 48 hours; read-out: FXN 2x (concentration required for a 2-fold increase in FXN mRNA)
Method: Blood is collected from Friedreich's ataxia patient donors into tubes containing the anti-coagulant EDTA. Primary lymphocytes are isolated using Lymphocyte Separation Medium (MP Biomedicals, Solon, Ohio) following the manufacturer's instructions and including a few modifications made by Repligen. After a final wash in Phosphate Buffered Saline (PBS), the cells are distributed into a 6-well cell culture plate in cell growth medium. The test HDAC inhibitor compound is added to cells in a dose escalating manner (usually concentrations range from 1 to 10 μM) and 0.1% DMSO is added to one well of cells as a no treatment control. Cells are incubated for 48 hours at 37° C. in a CO2 incubator; cell counts are taken using a Countess automated cell counter (Invitrogen, Carlsbad, Calif.). Equivalent numbers of cells for all treatment conditions are pelleted by centrifugation and resuspended in cell lysis buffer. Total RNA is isolated from approximately 1×10^6 primary lymphocytes using a RNeasy Mini Kit (Qiagen, Valencia, Calif.), following the manufacturer's instructions and including an optional on-column DNAse digestion step. The isolation is performed either manually or using the QIAcube (Qiagen, Valencia, Calif.), an instrument that automates much of the isolation procedure. The RNA yield and concentration is determined using a Nanodrop spectrophotometer (Thermo Fisher Scientific, Waltham, Mass.) and depending on the RNA concentration, one of two protocols is used to measure frataxin (FXN) transcript levels. For samples containing at least 15 ng/μL RNA a TaqMan® Probe-based (Applied Biosystems, Carlsbad, Calif.) qRT-PCR method is used, while for samples containing less than 15 ng/μL RNA a SYBR Green qRT-PCR method is used. In the TaqMan® Probe-based method specific primer/probe pairs for FXN and GAPDH are multiplexed in each reaction. In the SYBR Green method FXN and GAPDH are amplified in separate reactions. In both methods each RNA sample is analyzed in triplicate (preferably) or duplicate (minimally) using a one-step qRT-PCR master mix that contains all the components necessary for cDNA synthesis and PCR amplification in a single, continuous reaction. After cycling is complete, MxPro Software (Agilent Technologies, Santa Clara, Calif.) is used to analyze the collected data and determine the relative amount of FXN mRNA compared to a control sample. An adaptive baseline method is used for baseline correction whereby an algorithm automatically selects the appropriate baseline cycles for each well and each dye. An amplification-based threshold is set and the corresponding threshold cycle, or Ct, is obtained for calculating target concentration. The Ct values for each target gene (FXN and GAPDH) for each replicate series are averaged. The amount of FXN (or GAPDH) in the sample is determined as the relative quantity to the calibrator where the calibrator sample is assigned an arbitrary quantity of 1. The following equation is used: Relative quantity to the calibrator=2^−ΔCt where ΔCt=(Ct_gene)unknown−(Ct_gene)calibrator, gene is either FXN or GAPDH, calibrator is a DMSO control sample, and unknown is a HDACi treated sample. The relative quantity of FXN is normalized to cell number and RNA input. Data is reported in Tables 2 and 4 below, where the concentration required for a 2-fold increase in FXN mRNA is reported as A if less than 5 μM, B if between 5 and 10 μM, C if greater than 10 μM.

[5] = molecular target: HDAC3/NcoR2 (Homo sapiens (Human), UniProt O15379); assay: HDAC activity inhibition assay, HDAC3/NcoR2; format: biochemical
Sequence of HDAC3/NcoR2 (O15379 whole entry): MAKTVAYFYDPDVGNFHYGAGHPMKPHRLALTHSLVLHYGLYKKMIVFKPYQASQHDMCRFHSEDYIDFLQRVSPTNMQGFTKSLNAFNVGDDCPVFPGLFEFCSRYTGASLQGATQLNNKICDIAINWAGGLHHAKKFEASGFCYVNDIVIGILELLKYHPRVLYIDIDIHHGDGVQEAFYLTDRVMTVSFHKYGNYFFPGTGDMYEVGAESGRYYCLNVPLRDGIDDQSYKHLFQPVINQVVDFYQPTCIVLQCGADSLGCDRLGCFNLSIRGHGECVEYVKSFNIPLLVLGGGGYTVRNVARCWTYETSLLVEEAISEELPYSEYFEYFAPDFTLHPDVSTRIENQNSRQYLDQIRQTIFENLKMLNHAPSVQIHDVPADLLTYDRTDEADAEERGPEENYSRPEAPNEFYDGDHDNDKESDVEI
Sequence of HDAC3/NcoR2 (Q9Y618 395-489 partner): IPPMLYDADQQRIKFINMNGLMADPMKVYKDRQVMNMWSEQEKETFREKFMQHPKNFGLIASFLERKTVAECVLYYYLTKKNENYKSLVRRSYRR
Method: as §1

[6] = tested on: Human Hepatocytes; assay: Compound stability in hepatocytes; conditions: 5 μM
Method: To assess the stability and metabolism of RGFP compounds in hepatocytes. This assay was designed to evaluate the metabolism of RGFP compounds, following their incubation with human, monkey, dog and rat hepatocytes by monitoring either parent drug disappearance or metabolite appearance using HPLC.
Procedure: • Turn on the water-bath heater to 37° C. • Take out the KHB buffer and make sure it is at room temp before use • Prepare 2.5 mM concentration of RGFP compound in DMSO stock • Add 10 μL of above DMSO stock to 2490 μL KHB buffer; final concentration of RGFP compound will be 10 μM • Pre-warm 45 ml InVitro HT Medium to 37° C. in a sterile 50 ml conical tube • Add 1.0 mL Torpedo Antibiotic Mix per 45 mL InVitro HT medium • Transfer 13 mL of warm HT medium with Antibiotic Mix into a 15 mL conical tube. • Carefully remove the hepatocyte vials from liquid nitrogen (liquid phase). • Immediately immerse the vial into a 37° C. water bath. Shake gently until the ice melts entirely. […] Loosen the cell pellet by gently swirling the centrifuge tube • Transfer 100 μL of above solution to a different tube and add 900 μL of KHB buffer to count the cells • Determine the total cell count and the number of viable cells using the Trypan Blue exclusion method • Once you obtain the cell count, multiply the number by 10 (attributing to the dilution factor) • Now add required volume of KHB buffer to the tube containing hepatocytes such that the final count will be 2 million cells/mL • Dispense 50 μL of 2 million cells/ml to a 96 well plate and then add 50 μl of DMSO stock to respective wells (such that, the concentration of RGFP compounds is 5 μM and number of cells are 100000 in each well) • Place the plates on a shaker in a 37° C. incubator with 5% CO2 • Separate plates for each time point are advisable (Time points: 0 h, 1 h, 2 h, and 6 h) • After each time point, add 100 μL of quenching solution. • Quenching solution is an acetonitrile solution containing RGFP531 (10 μM) internal standard, 0.1% formic acid and phenylglyoxol (400 μM). The formic acid and phenylglyoxal is used for the identification and quantification of OPD as mentioned above. • Pipette up and down a few times to ensure a complete stop of reaction • Transfer all the solution into a 1.5 ml tube, vortex thoroughly, and centrifuge at 14000 RPM at 4° C. for 5 minutes to precipitate cell debris
Transfer the 150 μL of supernatant to vials for analysis using HPLC

[7] = Brain penetration studies; conditions: Table 4; mice; Cmax(brain)/Cmax(plasma)
Method: Test compounds were prepared at either 0.5 mg/ml or 5 mg/ml in 30% hydroxypropyl-β-cyclodextrin, 100 mM sodium acetate pH 5.5, 5% DMSO. C57/BL6/J mice were dosed s.c. at 5 mg/kg or 50 mg/kg, or i.v. at 5 mg/kg. Animals were euthanized at pre-dose, 5, 15, 30 min, 1, 2 and 4 hours post-dose and plasma and brain obtained. Three animals per dose per time points were used. The levels of compound in the plasma and brain were determined by standard LC/MS/MS methods. Brain/plasma ratio (BPR) was calculated as the ratio of the Cmax(brain)/Cmax(plasma).

[8] = Table 1, 2 hours pre-incubation

Sequence of HDAC2 (Q92769 whole entry): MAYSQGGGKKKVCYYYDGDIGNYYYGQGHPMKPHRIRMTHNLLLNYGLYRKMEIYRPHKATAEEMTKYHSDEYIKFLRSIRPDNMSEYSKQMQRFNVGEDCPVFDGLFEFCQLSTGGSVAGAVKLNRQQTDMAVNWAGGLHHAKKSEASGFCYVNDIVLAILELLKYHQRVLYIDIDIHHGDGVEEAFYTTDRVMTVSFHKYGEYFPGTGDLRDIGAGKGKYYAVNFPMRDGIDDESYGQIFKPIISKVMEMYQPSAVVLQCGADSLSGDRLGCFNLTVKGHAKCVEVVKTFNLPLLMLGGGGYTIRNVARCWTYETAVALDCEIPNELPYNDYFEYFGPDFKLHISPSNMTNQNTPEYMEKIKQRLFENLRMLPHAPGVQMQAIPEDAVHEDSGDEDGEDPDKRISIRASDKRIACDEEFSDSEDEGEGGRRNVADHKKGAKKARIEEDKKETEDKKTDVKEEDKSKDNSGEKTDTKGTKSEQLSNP

Row | Compound | IC50 [1, 8] [nM] | acid stability (percent remaining after 24 hours incubation) [2] | IC50 [3, 8] [nM] | EC (2-fold FXN mRNA) [4] [µM] | IC50 [5, 8] [nM] | % left 6 h Hum [6] | IC50 ([1]; Table 4) [nM] | IC50 ([3]; Table 4) [nM] | IC50 ([5]; Table 4) [nM] | BPR [7]
1 | Nc1ccccc1NC(=O)/C=C/c1cnn(CCOc2ccccc2)c1 [D3, (E)-N-(2-aminophenyl)-3-(1-(2-phenoxyethyl)-1H-pyrazol-4-yl)acrylamide] | < 1000 | A (A corresponds to more than 60%) | < 1000 | 5 to 10 | < 1000 | – | – | – | – | –
2 | Nc1ccccc1NC(=O)/C=C/c1cnn(Cc2ccccc2)c1 [D4] | 1000 to 5000 | A (A corresponds to more than 60%) | < 1000 | > 10 | < 1000 | – | – | – | – | –
3 | Cc1cccc(Cn2cc(/C=C/C(=O)Nc3ccccc3N)cn2)n1 [D6] | 1000 to 5000 | – | 1000 to 5000 | > 10 | – | – | – | – | – | –
4 | Nc1ccccc1NC(=O)/C=C/c1cnn(CCc2ccccc2)c1 [D7] | 1000 to 5000 | B (B is between 40 and 60%) | < 1000 | 5 to 10 | < 1000 | – | – | – | – | –
5 | Nc1ccccc1NC(=O)/C=C/c1cnn(CCCc2ccccc2)c1 [D8] | < 1000 | – | < 1000 | > 10 | < 1000 | – | – | – | – | –
6 | Nc1ccccc1NC(=O)/C=C/c1cnn(CCCCc2ccccc2)c1 [D9] | < 1000 | A (A corresponds to more than 60%) | < 1000 | < 5 | < 1000 | – | – | – | – | –
7 | Nc1ccccc1NC(=O)/C=C/c1cnn(CC(F)(F)c2ccccc2)c1 [D10] | 1000 to 5000 | – | < 1000 | > 10 | < 1000 | – | – | – | – | –
8 | Nc1ccccc1NC(=O)/C=C/c1cnn(CC/C=C/c2ccccc2)c1 [D11] | < 1000 | – | < 1000 | 5 to 10 | < 1000 | – | – | – | – | –
9 | Nc1ccccc1NC(=O)/C=C/c1cnn(CCOCc2ccccc2)c1 [D14] | < 1000 | B (B is between 40 and 60%) | < 1000 | 5 to 10 | < 1000 | – | – | – | – | –
10 | Nc1ccccc1NC(=O)c1ccc(C=C2CCN(Cc3cccnc3)CC2)cc1 [F2] | < 1000 | B (B is between 40 and 60%) | < 1000 | < 5 | < 1000 | – | – | – | – | –
11 | Nc1ccccc1NC(=O)c1ccc(C=C2CN(Cc3ccc4cc[nH]c4c3)C2)cc1 [F3] | < 1000 | B (B is between 40 and 60%) | < 1000 | < 5 | < 1000 | – | – | – | – | –
12 | Nc1ccccc1NC(=O)c1ccc(CC2CN(Cc3ccc4cc[nH]c4c3)C2)cc1 [F4] | – | B (B is between 40 and 60%) | < 1000 | < 5 | < 1000 | – | – | – | – | –
13 | Nc1ccccc1NC(=O)c1ccc(C=C2CCN(Cc3cccnc3)CC2)c(Cl)c1 [F7] | < 1000 | – | < 1000 | – | < 1000 | C (30%>C>10%) | < 1000 | < 1000 | < 1000 | –
14 | CN1C2CCC1CC(=Cc1ccc(C(=O)Nc3ccccc3N)cc1Cl)C2 [F8] | – | – | – | – | – | – | < 1000 | < 1000 | < 1000 | C (C is 0.2 to 0.5)
15 | Nc1ccccc1NC(=O)c1ccc(C=C2COC2)cc1F [F9] | – | – | – | – | – | IA (IA<10%) | – | < 1000 | < 1000 | –
16 | Nc1ccccc1NC(=O)c1ccc(C=C2CN(CC3CC3)C2)c(Cl)c1 [F10] | – | – | – | – | – | B (50%>B>30%) | – | – | – | A (A is greater than 1)
17 | Nc1ccccc1NC(=O)c1ccc(C=C2COC2)c(Cl)c1 [F11] | – | – | – | – | – | C (30%>C>10%) | – | < 1000 | < 1000 | A (A is greater than 1)
18 | Nc1ccccc1NC(=O)c1ccc(C=C2CCN(CC3CC3)CC2)cc1 [F13] | – | – | – | – | – | B (50%>B>30%) | < 1000 | < 1000 | < 1000 | A (A is greater than 1)
19 | Cc1cccc(CN2CC(=Cc3ccc(C(=O)Nc4ccccc4N)cc3)C2)n1 [F16] | – | – | – | – | – | C (30%>C>10%) | < 1000 | < 1000 | < 1000 | –
20 | Nc1ccccc1NC(=O)c1ccc(C=C2CN(Cc3ccccc3)C2)cc1 [F17] | – | – | – | – | – | C (30%>C>10%) | < 1000 | < 1000 | < 1000 | –
21 | Nc1ccccc1NC(=O)c1ccc(C=C2CN(Cc3cccnc3)C2)cc1 [F18] | – | – | – | – | – | C (30%>C>10%) | < 1000 | < 1000 | < 1000 | –
22 | CC(C)(O)CN1CC(=Cc2ccc(C(=O)Nc3ccccc3N)cc2)C1 [F19] | – | – | – | – | – | A (50%<A) | 1000 to 5000 | < 1000 | < 1000 | –
23 | Nc1cc(F)ccc1NC(=O)c1ccc(C=C2CN(CC3CC3)C2)cc1 [F20] | – | – | – | – | – | A (50%<A) | 1000 to 5000 | 1000 to 5000 | < 1000 | –
